Measured values as given in patent US6355799B1, “Substituted benzene compounds, process for their preparation, and herbicidal and defoliant compositions containing them” (ISK Americas Incorporated, priority 1997, dated 2002).

Assays:
Format in all cases: in vivo
[1] = test system: field corn (Zea mays L., var. Dekalb 535, CORN); assay: Post-emerge test, crop safety; details: phytotoxicity rating 0-100 (0 no damage, 100 complete death), 14 days after application
In short: (§1)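 Visual ratings on a 0-100 scale (0 no damage, 100 all plants dead) were taken at 14 days after treatment. Rates of 15-1000 g ai/ha in acetone, 187 l/ha, were sprayed onto soil one day after planting (pre-emerge) or onto 2-3 leaf plants with 0.25% v/v surfactant (post-emerge).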

[2] = test system: upland rice (Oryza sp., var. Tebonnet, RICE); assay: Post-emerge test, crop safety; details: phytotoxicity rating 0-100 (0 no damage, 100 complete death), 14 days after application
In short: as §1

[3] = test system: green foxtail (Setaria viridis, SETVI); assay: Post-emerge test, greenhouse herbicide activity screening; details: phytotoxicity rating 0-100 (0 no damage, 100 complete death), 14 days after application
In short: (§2)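 Each test used a mechanized track sprayer delivering 187 l/ha of acetone solution at 15–1000 g ai/ha. Post-emerge foliage at 2–3 leaves was treated with added 0.25% v/v non-ionic surfactant and bottom-watered only. Injury was assessed on day 14, where 100 means total kill.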

[4] = test system: johnsongrass (Sorghum halepense, SORHA); assay: as above; details: phytotoxicity rating 0-100 (0 no damage, 100 complete death), 14 days after application
In short: as §2

[5] = test system: lambsquarters (Chenopodium album, CHEAL); assay: as above; details: phytotoxicity rating 0-100 (0 no damage, 100 complete death), 14 days after application
In short: as §2

[6] = test system: ivyleaf morningglory (Ipomoea hederacea, IPOHE); assay: as above; details: phytotoxicity rating 0-100 (0 no damage, 100 complete death), 14 days after application
In short: as §2

[7] = test system: velvetleaf (Abutilon theophrasti, ABUTH); assay: as above; details: phytotoxicity rating 0-100 (0 no damage, 100 complete death), 14 days after application
In short: as §2

[8] = test system: barnyardgrass (Echinochloa crus-galli, ECHCG); assay: as above; details: phytotoxicity rating 0-100 (0 no damage, 100 complete death), 14 days after application
In short: as §2

[9] = test system: redroot pigweed (Amaranthus retroflexus, AMARE); assay: as above; details: phytotoxicity rating 0-100 (0 no damage, 100 complete death), 14 days after application
In short: as §2

[10] = test system: large crabgrass (Digitaria sanguinalis, DIGSA); assay: as above; details: phytotoxicity rating 0-100 (0 no damage, 100 complete death), 14 days after application
In short: as §2

[11] = test system: common ragweed (Ambrosia artemisizfolia L., AMBEL); assay: as above; details: phytotoxicity rating 0-100 (0 no damage, 100 complete death), 14 days after application
In short: as §2

[12] = test system: sicklepod (Cassia obtusifolia, CASOB); assay: as above; details: phytotoxicity rating 0-100 (0 no damage, 100 complete death), 14 days after application
In short: as §2

[13] = test system: green foxtail (Setaria viridis, SETVI); assay: Pre-emerge test, greenhouse herbicide activity screening; details: pre-emerge, rated 14 days after application, 0 = no damage, 100 = complete death
In short: as §1

[14] = test system: johnsongrass (Sorghum halepense, SORHA); assay: as above; details: pre-emerge, rated 14 days after application, 0 = no damage, 100 = complete death
In short: as §1

[15] = test system: lambsquarters (Chenopodium album, CHEAL); assay: as above; details: pre-emerge, rated 14 days after application, 0 = no damage, 100 = complete death
In short: as §1

[16] = test system: ivyleaf morningglory (Ipomoea hederacea, IPOHE); assay: as above; details: pre-emerge, rated 14 days after application, 0 = no damage, 100 = complete death
In short: as §1

[17] = test system: velvetleaf (Abutilon theophrasti, ABUTH); assay: as above; details: pre-emerge, rated 14 days after application, 0 = no damage, 100 = complete death
In short: as §1

[18] = test system: barnyardgrass (Echinochloa crus-galli, ECHCG); assay: as above; details: pre-emerge, rated 14 days after application, 0 = no damage, 100 = complete death
In short: as §1

[19] = test system: large crabgrass (Digitaria sanguinalis, DIGSA); assay: as above; details: pre-emerge, rated 14 days after application, 0 = no damage, 100 = complete death
In short: as §1

[20] = test system: common ragweed (Ambrosia artemisizfolia L., AMBEL); assay: as above; details: pre-emerge, rated 14 days after application, 0 = no damage, 100 = complete death
In short: as §1

[21] = test system: sicklepod (Cassia obtusifolia, CASOB); assay: as above; details: pre-emerge, rated 14 days after application, 0 = no damage, 100 = complete death
In short: as §1

[22] = test system: redroot pigweed (Amaranthus retroflexus, AMARE); assay: as above; details: pre-emerge, rated 14 days after application, 0 = no damage, 100 = complete death
In short: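 Herbicidal damage is scored 0 (none) to 100 (complete plant death) two weeks after a simulated field spray. Rates span 15–1000 g ai/ha, delivered in acetone at 187 l/ha. For post-emergence treatments, plants have 2–3 leaves and the spray carries 0.25% v/v non-ionic surfactant.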

[23] = test system: field corn (Zea mays L., var. Dekalb 535, CORN); assay: Pre-emerge test, crop safety; details: pre-emerge, rated 14 days after application, 0 = no damage, 100 = complete death
In short: (§3)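 Applied at 15–1000 g ai/ha from acetone in 187 l/ha spray volume. Post-emergence applications included 0.25% v/v non-ionic surfactant and reached plants sown 8–21 days before. Pre-emergence applications were incorporated by surface watering. Efficacy or crop damage was rated on a 0–100 scale after 14 days.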

[24] = test system: upland rice (Oryza sp., var. Tebonnet, RICE); assay: Pre-emerge test, crop safety; details: pre-emerge, rated 14 days after application, 0 = no damage, 100 = complete death
In short: as §3

Structure (SMILES): CCCc1ccc(C(=O)N(C(=O)c2ccc(CCC)cc2)c2c(OC)c(Cl)cc(F)c2-n2c(=O)cc(C(F)(F)F)n(C)c2=O)cc1 [2-29]
- Post-emerge Herbicidal Activity CORN (crop damage) ([1]; 63 g ai/ha): 10
- Post-emerge Herbicidal Activity CORN (crop damage) ([1]; 250 g ai/ha): 25
- Post-emerge Herbicidal Activity RICE (crop damage) ([2]; 63 g ai/ha): 40
- Post-emerge Herbicidal Activity RICE (crop damage) ([2]; 250 g ai/ha): 60
- Post-emerge Herbicidal Activity SETVI ([3]; 63 g ai/ha): 20
- Post-emerge Herbicidal Activity SETVI ([3]; 250 g ai/ha): 50
- Post-emerge Herbicidal Activity SORHA ([4]; 63 g ai/ha): 0
- Post-emerge Herbicidal Activity SORHA ([4]; 250 g ai/ha): 10
- Post-emerge Herbicidal Activity CHEAL ([5]; 63 g ai/ha): 80
- Post-emerge Herbicidal Activity CHEAL ([5]; 250 g ai/ha): 90
- Post-emerge Herbicidal Activity IPOHE ([6]; 63 g ai/ha): 75
- Post-emerge Herbicidal Activity IPOHE ([6]; 250 g ai/ha): 100
- Post-emerge Herbicidal Activity ABUTH ([7]; 63 g ai/ha): 100
- Post-emerge Herbicidal Activity ABUTH ([7]; 250 g ai/ha): 100
- Post-emerge Herbicidal Activity ECHCG ([8]; 63 g ai/ha): 0
- Post-emerge Herbicidal Activity ECHCG ([8]; 250 g ai/ha): 20
- Post-emerge Herbicidal Activity AMARE ([9]; 63 g ai/ha): 90
- Post-emerge Herbicidal Activity AMARE ([9]; 250 g ai/ha): 100
- Post-emerge Herbicidal Activity DIGSA ([10]; 63 g ai/ha): 0
- Post-emerge Herbicidal Activity DIGSA ([10]; 250 g ai/ha): 20
- Post-emerge Herbicidal Activity AMBEL ([11]; 63 g ai/ha): 50
- Post-emerge Herbicidal Activity AMBEL ([11]; 250 g ai/ha): 60
- Post-emerge Herbicidal Activity CASOB ([12]; 63 g ai/ha): 20
- Post-emerge Herbicidal Activity CASOB ([12]; 250 g ai/ha): 40
- Pre-emerge Herbicidal Activity SETVI (phytotoxicity rating, scale 0-100) ([13]; 63 g ai/ha): 100
- Pre-emerge Herbicidal Activity SETVI (phytotoxicity rating, scale 0-100) ([13]; 250 g ai/ha): 100
- Pre-emerge Herbicidal Activity SORHA (phytotoxicity rating, scale 0-100) ([14]; 63 g ai/ha): 0
- Pre-emerge Herbicidal Activity SORHA (phytotoxicity rating, scale 0-100) ([14]; 250 g ai/ha): 80
- Pre-emerge Herbicidal Activity CHEAL (phytotoxicity rating, scale 0-100) ([15]; 63 g ai/ha): 100
- Pre-emerge Herbicidal Activity CHEAL (phytotoxicity rating, scale 0-100) ([15]; 250 g ai/ha): 100
- Pre-emerge Herbicidal Activity IPOHE (phytotoxicity rating, scale 0-100) ([16]; 63 g ai/ha): 30
- Pre-emerge Herbicidal Activity IPOHE (phytotoxicity rating, scale 0-100) ([16]; 250 g ai/ha): 100
- Pre-emerge Herbicidal Activity ABUTH (phytotoxicity rating, scale 0-100) ([17]; 63 g ai/ha): 100
- Pre-emerge Herbicidal Activity ABUTH (phytotoxicity rating, scale 0-100) ([17]; 250 g ai/ha): 100
- Pre-emerge Herbicidal Activity ECHCG (phytotoxicity rating, scale 0-100) ([18]; 63 g ai/ha): 0
- Pre-emerge Herbicidal Activity ECHCG (phytotoxicity rating, scale 0-100) ([18]; 250 g ai/ha): 50
- Pre-emerge Herbicidal Activity DIGSA (phytotoxicity rating, scale 0-100) ([19]; 63 g ai/ha): 60
- Pre-emerge Herbicidal Activity DIGSA (phytotoxicity rating, scale 0-100) ([19]; 250 g ai/ha): 90
- Pre-emerge Herbicidal Activity AMBEL (phytotoxicity rating, scale 0-100) ([20]; 63 g ai/ha): 0
- Pre-emerge Herbicidal Activity AMBEL (phytotoxicity rating, scale 0-100) ([20]; 250 g ai/ha): 60
- Pre-emerge Herbicidal Activity CASOB (phytotoxicity rating, scale 0-100) ([21]; 63 g ai/ha): 60
- Pre-emerge Herbicidal Activity CASOB (phytotoxicity rating, scale 0-100) ([21]; 250 g ai/ha): 100
- Pre-emerge Herbicidal Activity AMARE (phytotoxicity rating, scale 0-100) ([22]; 63 g ai/ha): 100
- Pre-emerge Herbicidal Activity AMARE (phytotoxicity rating, scale 0-100) ([22]; 250 g ai/ha): 100
- Pre-emerge crop damage CORN (phytotoxicity rating, scale 0-100) ([23]; 63 g ai/ha): 0
- Pre-emerge crop damage CORN (phytotoxicity rating, scale 0-100) ([23]; 250 g ai/ha): 15
- Pre-emerge crop damage RICE (phytotoxicity rating, scale 0-100) ([24]; 63 g ai/ha): 40
- Pre-emerge crop damage RICE (phytotoxicity rating, scale 0-100) ([24]; 250 g ai/ha): 65
